# ± gives the expanded uncertainty stated by the source.
# Conditions: Vibrating tube method; for mass density: Liquid; for specific volume: Gas
smiles,measurement,setting,value
"F/C=C\C(F)(F)F [(Z)-1,3,3,3-tetrafluoro-1-propene]",mass density,"353.14 K, 33995 kPa",1208 ± 1.7 kg/m3
same,specific volume,"353.15 K, 96.4 kPa",0.26 ± 0.005 m3/kg
same,specific volume,"353.15 K, 134.4 kPa",0.185 ± 0.003 m3/kg
same,specific volume,"353.15 K, 220.3 kPa",0.112 ± 0.001 m3/kg
same,specific volume,"353.15 K, 228.3 kPa",0.107 ± 0.001 m3/kg
same,specific volume,"353.15 K, 253.3 kPa",0.096 ± 0.001 m3/kg
same,specific volume,"353.15 K, 407.8 kPa",0.057 ± 0.001 m3/kg
same,mass density,"353.15 K, 3719 kPa",1080.1 ± 1.7 kg/m3
same,mass density,"353.15 K, 14840 kPa",1141.7 ± 1.7 kg/m3
same,mass density,"353.15 K, 15847 kPa",1146.1 ± 1.7 kg/m3
same,mass density,"353.15 K, 16854 kPa",1150.3 ± 1.7 kg/m3
same,mass density,"353.15 K, 18882 kPa",1158.4 ± 1.7 kg/m3
same,mass density,"353.15 K, 19886 kPa",1162.3 ± 1.7 kg/m3
same,mass density,"353.15 K, 20899 kPa",1166.1 ± 1.7 kg/m3
same,mass density,"353.15 K, 22916 kPa",1173.4 ± 1.7 kg/m3
same,mass density,"353.15 K, 24928 kPa",1180.3 ± 1.7 kg/m3
same,mass density,"353.15 K, 25940 kPa",1183.7 ± 1.7 kg/m3
same,mass density,"353.15 K, 26948 kPa",1186.9 ± 1.7 kg/m3
same,mass density,"353.15 K, 27955 kPa",1190.1 ± 1.7 kg/m3
same,mass density,"353.15 K, 28958 kPa",1193.2 ± 1.7 kg/m3
same,mass density,"353.15 K, 29961 kPa",1196.3 ± 1.7 kg/m3
same,mass density,"353.15 K, 30974 kPa",1199.3 ± 1.7 kg/m3
same,mass density,"353.15 K, 31977 kPa",1202.3 ± 1.7 kg/m3
same,mass density,"353.15 K, 32988 kPa",1205.2 ± 1.7 kg/m3
same,mass density,"353.16 K, 926 kPa",1057.5 ± 1.7 kg/m3
same,mass density,"353.16 K, 1696 kPa",1064.4 ± 1.7 kg/m3
same,mass density,"353.16 K, 2698 kPa",1072.4 ± 1.7 kg/m3
same,mass density,"353.16 K, 4742 kPa",1087.3 ± 1.7 kg/m3
same,mass density,"353.16 K, 5750 kPa",1093.9 ± 1.7 kg/m3
same,mass density,"353.16 K, 6761 kPa",1100.2 ± 1.7 kg/m3
same,mass density,"353.16 K, 7770 kPa",1106.2 ± 1.7 kg/m3
same,mass density,"353.16 K, 8771 kPa",1111.9 ± 1.7 kg/m3
same,mass density,"353.16 K, 9787 kPa",1117.4 ± 1.7 kg/m3
same,mass density,"353.16 K, 10798 kPa",1122.6 ± 1.7 kg/m3
same,mass density,"353.16 K, 11809 kPa",1127.7 ± 1.7 kg/m3
same,mass density,"353.16 K, 12819 kPa",1132.5 ± 1.7 kg/m3
same,mass density,"353.16 K, 13828 kPa",1137.2 ± 1.7 kg/m3
same,mass density,"353.16 K, 17868 kPa",1154.4 ± 1.7 kg/m3
same,mass density,"353.16 K, 21904 kPa",1169.8 ± 1.7 kg/m3
same,mass density,"353.16 K, 23917 kPa",1176.9 ± 1.7 kg/m3
same,specific volume,"355.15 K, 313.8 kPa",0.077 ± 0.001 m3/kg
same,specific volume,"358.15 K, 97.9 kPa",0.26 ± 0.005 m3/kg
same,specific volume,"358.15 K, 136.4 kPa",0.186 ± 0.003 m3/kg
same,specific volume,"358.15 K, 223.9 kPa",0.112 ± 0.001 m3/kg
same,specific volume,"358.15 K, 232 kPa",0.107 ± 0.001 m3/kg
same,specific volume,"358.15 K, 257.4 kPa",0.096 ± 0.001 m3/kg
same,specific volume,"358.15 K, 415 kPa",0.057 ± 0.001 m3/kg
same,specific volume,"360.15 K, 319.1 kPa",0.077 ± 0.001 m3/kg
same,mass density,"363.13 K, 14901 kPa",1116.7 ± 1.7 kg/m3
same,mass density,"363.14 K, 1456 kPa",1023.9 ± 1.7 kg/m3
same,mass density,"363.14 K, 1771 kPa",1027.2 ± 1.7 kg/m3
same,mass density,"363.14 K, 2776 kPa",1037.2 ± 1.7 kg/m3
same,mass density,"363.14 K, 3803 kPa",1046.4 ± 1.7 kg/m3
same,mass density,"363.14 K, 4829 kPa",1055 ± 1.7 kg/m3
same,mass density,"363.14 K, 5830 kPa",1062.7 ± 1.7 kg/m3
same,mass density,"363.14 K, 6835 kPa",1070 ± 1.7 kg/m3
same,mass density,"363.14 K, 7849 kPa",1076.9 ± 1.7 kg/m3
same,mass density,"363.14 K, 8855 kPa",1083.4 ± 1.7 kg/m3
same,mass density,"363.14 K, 9860 kPa",1089.5 ± 1.7 kg/m3
same,mass density,"363.14 K, 10872 kPa",1095.5 ± 1.7 kg/m3
same,mass density,"363.14 K, 11879 kPa",1101.1 ± 1.7 kg/m3
same,mass density,"363.14 K, 12892 kPa",1106.5 ± 1.7 kg/m3
same,mass density,"363.14 K, 13892 kPa",1111.7 ± 1.7 kg/m3
same,mass density,"363.14 K, 15912 kPa",1121.5 ± 1.7 kg/m3
same,mass density,"363.14 K, 16917 kPa",1126.2 ± 1.7 kg/m3
same,mass density,"363.14 K, 17931 kPa",1130.7 ± 1.7 kg/m3
same,mass density,"363.14 K, 18936 kPa",1135 ± 1.7 kg/m3
same,mass density,"363.14 K, 19943 kPa",1139.3 ± 1.7 kg/m3
same,mass density,"363.14 K, 20949 kPa",1143.4 ± 1.7 kg/m3
same,mass density,"363.14 K, 21954 kPa",1147.4 ± 1.7 kg/m3
same,mass density,"363.14 K, 22956 kPa",1151.2 ± 1.7 kg/m3
same,mass density,"363.14 K, 23961 kPa",1155 ± 1.7 kg/m3
same,mass density,"363.14 K, 25973 kPa",1162.3 ± 1.7 kg/m3
same,mass density,"363.14 K, 26975 kPa",1165.8 ± 1.7 kg/m3
same,mass density,"363.14 K, 27982 kPa",1169.3 ± 1.7 kg/m3
same,mass density,"363.14 K, 29991 kPa",1175.9 ± 1.7 kg/m3
same,mass density,"363.14 K, 31998 kPa",1182.3 ± 1.7 kg/m3
same,specific volume,"363.15 K, 99.3 kPa",0.26 ± 0.005 m3/kg
same,specific volume,"363.15 K, 138.4 kPa",0.186 ± 0.003 m3/kg
same,specific volume,"363.15 K, 227.4 kPa",0.112 ± 0.001 m3/kg
same,specific volume,"363.15 K, 235.7 kPa",0.107 ± 0.001 m3/kg
same,specific volume,"363.15 K, 261.4 kPa",0.096 ± 0.001 m3/kg
same,specific volume,"363.15 K, 422.2 kPa",0.057 ± 0.001 m3/kg
same,mass density,"363.15 K, 24969 kPa",1158.7 ± 1.7 kg/m3
same,mass density,"363.15 K, 28984 kPa",1172.6 ± 1.7 kg/m3
same,mass density,"363.15 K, 30992 kPa",1179.1 ± 1.7 kg/m3
same,mass density,"363.15 K, 33009 kPa",1185.4 ± 1.7 kg/m3
same,mass density,"363.15 K, 34010 kPa",1188.4 ± 1.7 kg/m3
same,specific volume,"365.15 K, 324.3 kPa",0.077 ± 0.001 m3/kg
same,specific volume,"368.15 K, 100.7 kPa",0.26 ± 0.005 m3/kg
same,specific volume,"368.15 K, 140.5 kPa",0.186 ± 0.003 m3/kg
same,specific volume,"368.15 K, 231 kPa",0.112 ± 0.001 m3/kg
same,specific volume,"368.15 K, 239.3 kPa",0.107 ± 0.001 m3/kg
same,specific volume,"368.15 K, 265.5 kPa",0.096 ± 0.001 m3/kg
same,specific volume,"368.15 K, 429.3 kPa",0.057 ± 0.001 m3/kg
same,specific volume,"370.15 K, 329.4 kPa",0.077 ± 0.001 m3/kg
same,specific volume,"373.15 K, 102.2 kPa",0.26 ± 0.005 m3/kg
same,specific volume,"373.15 K, 142.5 kPa",0.186 ± 0.003 m3/kg
same,specific volume,"373.15 K, 234.6 kPa",0.112 ± 0.001 m3/kg
same,specific volume,"373.15 K, 242.9 kPa",0.107 ± 0.001 m3/kg
same,specific volume,"373.15 K, 269.6 kPa",0.096 ± 0.001 m3/kg
same,specific volume,"373.15 K, 436.3 kPa",0.057 ± 0.001 m3/kg
same,specific volume,"375.15 K, 334.6 kPa",0.077 ± 0.001 m3/kg
